“Also recorded” adds a separate entry of the source.
Legend:
[1] = human, in vivo; cited from earlier work
[2] = in vivo; cited from earlier work
[3] = cited from earlier work
[4] = cited from earlier work; remark: listed apart in the source
copper-albumin = copper-albumin (Homo sapiens, UniProt P02768); details: in vitro
breast cancer cells = experiment: Human breast cancer xenograft growth in athymic nude mice; assay type: in vivo
Protocol: FIG. 5. […] 10^6 breast cancer cells were injected in the mammary fat pad of 4 groups of athymic, nude mice (5 mice per group). Control mice received no treatment.
In this study, 10^6 breast cancer cells were injected in the mammary fat pad of 4 groups of athymic, nude mice (5 mice per group). Control mice received no treatment.

[5] = therapeutic dose 1,000-2,000 mg/day

Chain of copper-albumin (P02768 25-609): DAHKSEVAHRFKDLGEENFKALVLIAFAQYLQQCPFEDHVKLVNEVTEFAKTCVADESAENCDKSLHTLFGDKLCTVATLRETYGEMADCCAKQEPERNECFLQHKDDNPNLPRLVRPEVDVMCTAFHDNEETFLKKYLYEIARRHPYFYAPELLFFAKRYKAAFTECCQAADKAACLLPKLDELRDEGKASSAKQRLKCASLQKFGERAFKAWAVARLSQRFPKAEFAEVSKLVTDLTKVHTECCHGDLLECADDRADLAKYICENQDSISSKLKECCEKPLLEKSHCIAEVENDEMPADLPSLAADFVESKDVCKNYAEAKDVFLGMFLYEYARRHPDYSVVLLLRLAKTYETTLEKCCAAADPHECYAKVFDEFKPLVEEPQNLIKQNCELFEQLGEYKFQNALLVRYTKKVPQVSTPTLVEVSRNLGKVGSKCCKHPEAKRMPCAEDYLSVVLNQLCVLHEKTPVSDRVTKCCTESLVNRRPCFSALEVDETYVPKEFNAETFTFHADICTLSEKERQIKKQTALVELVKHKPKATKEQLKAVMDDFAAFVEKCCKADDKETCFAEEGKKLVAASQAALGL

NC(=O)c1nnn(Cc2cc(Cl)c(C(=O)c3ccc(Cl)cc3)c(Cl)c2)c1N [CAI, carboxyamidotriazole]
disease stabilization in cancer patients having progressive disease before treatment [1]: 49%

CC(C)(S)[C@@H](N)C(=O)O [penicillamine]
initial hypersensitivity syndrome [2]: about a quarter to a third of patients

NCCNCCNCCN [trientine]
patients with proteinuria ([3]; after several weeks of use): about 20% | cupruresis after the first few weeks of therapy [3, 5]: 2 to 3 mg | initial cupruresis [3, 5]: 4 to 5 mg

CC(=O)[O-].CC(=O)[O-].[Zn+2] [zinc, zinc acetate]
toxicity ([4]; 150 mg daily, 200 Wilson's disease patients): no toxicity at all | copper balance induced ([4]; at the two week point): −0.35 mg daily | time to bring urine copper and nonceruloplasmin plasma copper to subtoxic levels ([4]; in vivo): as long as six months | time to intestinal metallothionein induction and negative copper balance ([4]; in vivo): approximately two weeks

tetrapropylammonium tetrathiomolybdate [TP-TM]
copper-albumin-TM tripartite binding (copper-albumin): show the standard copper-albumin-TM tripartite binding | tumor growth curves versus control animals (breast cancer cells; TM 1 mg/day, TP-TM 1 mg/day and 1.5 mg/day, p<0.01 vs control): effectively inhibiting tumor growth | TP-TM tumor growth inhibition compared with TM (breast cancer cells; TP-TM 1 and 1.5 mg/day vs AmmTM 1 mg/day): indistinguishable from that of AmmTM; also recorded: at least as effective as TM; also recorded: statistically indistinguishable from the TM curves

— US7888389B2 (The Regents of the University of Michigan, priority 2002, dated 2011)
